{"source": "patent USRE36832E", "about": "“N-heteroaryl-N'-phenylurea derivatives, their production and use” (Nihon Nohyaku Co., LTD, priority 1993, dated 2000)", "key": {"serum cholesterol": {"system": "serum cholesterol", "experiment": "Serum cholesterol lowering activity in hamsters fed on a high-cholesterol diet", "type": "in vivo, Male Syrian hamsters", "details": "30 mg per kg of body weight per day for 4 days, 24 hours after the last administration", "experimental": "Serum cholesterol lowering activity in hamsters fed on a high-cholesterol diet\nMale Syrian hamsters of 10-week-old were divided into three groups. The first group (normal group) was fed an ordinary diet for 4 days. The second group (control group) was fed a high cholesterol diet (containing 0.5% cholesterol and 8.0% coconut oil for 4 days. The third group (treated group) was fed a high cholesterol diet and was treated with a compound for 4 days. Simultaneously with the beginning of the above feeding, the compound suspended in a 0.5% carboxymethyl cellulose solution was administered to the treated group, in a dose of 30 mg (in terms of the compound) per kg of body weight per day for 4 days. A 0.5% carboxymethyl cellulose solution was also administered to the normal group and the control group in the same manner as above. After 24 hours of the last administration, blood was collected and the cholesterol concentration in serum was measured by an enzymatic method. The reduction rate of the total serum cholesterol concentration was calculated from values obtained for the three groups by the following equation. [formula] wherein A: the serum cholesterol concentration of the control group.\nB: the serum cholesterol concentration of the compound treated group.\nC: the serum cholesterol concentration of the normal group."}, "[1]": {"target": "T1, acyl-CoA:cholesterol O-acyltransferase (ACAT) (Oryctolagus cuniculus, UniProt G1SFD9)", "T1 construct": "The intestinal mucosa of a white rabbit was homogenized and microsomal fraction was obtained by stepwise centrifugation; from tissue; host or cells: intestinal mucosa of white rabbit, microsomal fraction", "T1 sequence (G1SFD9 1-524)": "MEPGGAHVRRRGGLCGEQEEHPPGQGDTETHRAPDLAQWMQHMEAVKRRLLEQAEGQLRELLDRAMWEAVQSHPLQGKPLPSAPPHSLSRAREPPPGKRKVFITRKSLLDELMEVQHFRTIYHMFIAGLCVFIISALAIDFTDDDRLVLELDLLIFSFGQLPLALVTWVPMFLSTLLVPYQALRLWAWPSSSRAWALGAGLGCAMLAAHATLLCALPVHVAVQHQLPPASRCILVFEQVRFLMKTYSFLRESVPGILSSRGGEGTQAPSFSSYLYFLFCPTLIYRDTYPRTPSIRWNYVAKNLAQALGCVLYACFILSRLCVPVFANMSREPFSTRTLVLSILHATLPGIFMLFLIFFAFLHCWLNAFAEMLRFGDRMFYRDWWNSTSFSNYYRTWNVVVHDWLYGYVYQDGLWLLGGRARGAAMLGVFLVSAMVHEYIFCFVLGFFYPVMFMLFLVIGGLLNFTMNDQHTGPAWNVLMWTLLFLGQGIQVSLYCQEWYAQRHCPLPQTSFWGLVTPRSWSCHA", "experiment": "Inhibitory activity on acyl-CoA:cholesterol O-acyltransferase (ACAT), intestinal mucosa microsomal fraction, [1-14C]oleyl-CoA incorporation into cholesterol esters", "type": "biochemical, white rabbit", "details": "read-out: Inhibition rate %", "experimental": "Inhibitory activity on acyl-CoA:cholesterol Oacyltransferase (ACAT)\nThe enzyme used in the test was prepared according to the method of Heider et al. [J. Lipid, Res. 24, 1127 (1983)]. The intestinal mucosa of a white rabbit was homogenized and microsomal fraction was obtained by stepwise centrifugation. The microsomal fraction was suspended in 0,154M phosphate buffer (pH 0 7.4) and stored at -80° C. until use.\nACAT activity was determined by a modification of the method of Helgerud et al. [J. Lipid Res. 22, 271 (1981)] by measuring radioactivity incorporated into cholesterol esters from [1-14C]oleyl-CoA, as an indication. As to the ACAT-inhibiting activity of each compound to be tested, the inhibition rate was calculated by the following equation."}}}
{"smiles": "CCc1cccc(CC)c1NC(=O)Nc1oc2cc(C)c(C)cc2c1-c1ccccc1Cl", "note": "[Compound 37, N-[3-(2-Chlorophenyl)-5,6-dimethylbenzofuran-2-yl]-N'-(2,6-diethylphenyl)urea]", "values": [{"measurement": "Reduction rate (%) of the total serum cholesterol concentration", "setting": "serum cholesterol", "result": 59.3, "unit": "%"}, {"measurement": "inhibition at 0.01 µM", "setting": "[1]", "result": 74.7, "unit": "%"}, {"measurement": "inhibition at 1 µM", "setting": "[1]", "result": 99.5, "unit": "%"}]}
{"smiles": "Cc1cc2sc(NC(=O)Nc3c(C(C)C)cccc3C(C)C)c(-c3ccccc3Cl)c2cc1C", "note": "[Compound 81, N-(3-(2-Chlorophenyl)-5,6-dimethyl-1-benzothiophen-2-yl]-N'-(2,6-diisopropylphenyl)urea]", "values": [{"measurement": "inhibition at 0.01 µM", "setting": "[1]", "result": 41.4, "unit": "%"}]}
{"smiles": "Cc1cc2sc(NC(=O)Nc3c(C)cccc3C(C)C)c(-c3ccccc3Cl)c2cc1C", "note": "[Compound 82, N-[3-(2-Chlorophenyl)-5,6-dimethyl-1-benzothiophen-2-yl]-N'-(2-isopropyl-6-methylphenyl)urea]", "values": [{"measurement": "inhibition at 0.01 µM", "setting": "[1]", "result": 67, "unit": "%"}]}
{"smiles": "Cc1cc2sc(NC(=O)Nc3c(C)cccc3N(C)C)c(-c3ccccc3Cl)c2cc1C", "note": "[Compound 83, N-[3-(2-Chlorophenyl)-5,6-dimethyl-1-benzothiophen-2-yl]-N'-(2-dimethylamino-6-methylphenyl)urea]", "values": [{"measurement": "inhibition at 0.01 µM", "setting": "[1]", "result": 81.3, "unit": "%"}]}
{"smiles": "Cc1cc2sc(NC(=O)Nc3ccc(F)cc3F)c(-c3ccccc3Cl)c2cc1C", "note": "[Compound 84, N-[3-(2-Chlorophenyl)-5,6-dimethyl-1-benzothiophen-2-yl]-N'-(2,4-difluorophenyl)urea]", "values": [{"measurement": "inhibition at 0.01 µM", "setting": "[1]", "result": 78.6, "unit": "%"}]}
{"smiles": "Cc1cccc(C)c1NC(=O)Nc1sc2cc3c(cc2c1-c1ccccc1Cl)CCC3", "note": "[Compound 87, N-[3-(2-Chlorophenyl)-6,7-dihydro-5H-cyclopenta[f][1]benzothiophen-2-yl]-N'-(2,6-dimethylphenyl)urea]", "values": [{"measurement": "inhibition at 0.01 µM", "setting": "[1]", "result": 60.4, "unit": "%"}]}
{"smiles": "CCc1cccc(CC)c1NC(=O)Nc1sc2cc3c(cc2c1-c1ccccc1Cl)CCC3", "note": "[Compound 88, N-[3-(2-Chlorophenyl)-6,7-dihydro-5H-cyclopenta[f][1]benzothiophen-2-yl]-N'-(2,6-diethylphenyl)urea]", "values": [{"measurement": "inhibition at 0.01 µM", "setting": "[1]", "result": 85.8, "unit": "%"}]}
{"smiles": "CC(C)c1cccc(C(C)C)c1NC(=O)Nc1sc2cc3c(cc2c1-c1ccccc1Cl)CCC3", "note": "[Compound 89, N-[3-(2-Chlorophenyl)-6,7-dihydro-5H-cyclopenta[f][1]benzothiophen-2-yl]-N'-(2,6-diisopropylphenyl)urea]", "values": [{"measurement": "inhibition at 0.01 µM", "setting": "[1]", "result": 44.4, "unit": "%"}]}
{"smiles": "Cc1cccc(C(C)C)c1NC(=O)Nc1sc2cc3c(cc2c1-c1ccccc1Cl)CCC3", "note": "[Compound 90, N-[3-(2-Chlorophenyl)-6,7-dihydro-5H-cyclopenta[f][1]benzothiophen-2-yl]-N'-(2-isopropyl-6-methylphenyl)urea]", "values": [{"measurement": "inhibition at 0.01 µM", "setting": "[1]", "result": 75.4, "unit": "%"}]}
{"smiles": "Cc1cccc(N(C)C)c1NC(=O)Nc1sc2cc3c(cc2c1-c1ccccc1Cl)CCC3", "note": "[Compound 91]", "values": [{"measurement": "inhibition at 0.01 µM", "setting": "[1]", "result": 65, "unit": "%"}]}
{"smiles": "O=C(Nc1ccc(F)cc1F)Nc1sc2cc3c(cc2c1-c1ccccc1Cl)CCC3", "note": "[Compound 92, N-(3-(2-Chlorophenyl)-6,7-dihydro-5H-cyclopenta[f][1]benzothiophen-2-yl]-N'-(2,4-difluorophenyl)urea]", "values": [{"measurement": "inhibition at 0.01 µM", "setting": "[1]", "result": 81.7, "unit": "%"}]}
{"smiles": "O=C(Nc1sc2cc3c(cc2c1-c1ccccc1Cl)CCC3)Nc1c(F)cccc1F", "note": "[Compound 93, N-[3-(2-Chlorophenyl)-6,7-dihydro-5H-cyclopenta[f][1]benzothiophen-2-yl]-N'-(2,6-difluorophenyl)urea]", "values": [{"measurement": "inhibition at 0.01 µM", "setting": "[1]", "result": 69.7, "unit": "%"}]}
{"smiles": "O=C(Nc1sc2cc3c(cc2c1-c1ccccc1Cl)CCC3)Nc1c(F)cc(F)cc1F", "note": "[Compound 94, N-[3-(2-Chlorophenyl)-6,7-dihydro-5H-cyclopenta[f][1]benzothiophen-2-yl]-N'-(2,4,6-trifluorophenyl)urea]", "values": [{"measurement": "inhibition at 0.01 µM", "setting": "[1]", "result": 76.7, "unit": "%"}]}
{"smiles": "O=C(Nc1sc2cc3c(cc2c1-c1ccccc1Cl)CCC3)Nc1c(Cl)cccc1Cl", "note": "[Compound 95, N-[3-(2-Chlorophenyl)-6,7-dihydro-5H-cyclopenta[f][1]benzothiophen-2-yl]-N'-(2,6-dichlorophenyl)urea]", "values": [{"measurement": "inhibition at 0.01 µM", "setting": "[1]", "result": 66.4, "unit": "%"}]}
{"smiles": "CCc1cccc(CC)c1NC(=O)Nc1sc2cc3c(cc2c1-c1ccccc1Cl)CCCC3", "note": "[Compound 96, N-[3-(2-Chlorophenyl)-5,6,7,8-tetrahydronaphthono[2,3-b]thiophen-2-yl]-N'-(2,6-diethylphenyl)urea]", "values": [{"measurement": "inhibition at 0.01 µM", "setting": "[1]", "result": 80.7, "unit": "%"}]}
{"smiles": "Cc1cccc(C(C)C)c1NC(=O)Nc1sc2cc3c(cc2c1-c1ccccc1Cl)CCCC3", "note": "[Compound 98, N-[3-(2-Chlorophenyl)-5,6,7,8-tetrahydronaphtho[2,3-b]thiophen-2-yl]-N'-(2-isopropyl-6-methylphenyl)urea]", "values": [{"measurement": "inhibition at 0.01 µM", "setting": "[1]", "result": 66, "unit": "%"}]}
{"smiles": "O=C(Nc1ccc(F)cc1F)Nc1sc2cc3c(cc2c1-c1ccccc1Cl)CCCC3", "note": "[Compound 99, N-[3-(2-Chlorophenyl)-5,6,7,8-tetrahydronaphtho[2,3-b]thiophen-2-yl]-N'-(2,4-difluorophenyl)urea]", "values": [{"measurement": "inhibition at 0.01 µM", "setting": "[1]", "result": 90.1, "unit": "%"}]}
{"smiles": "CC(C)c1cccc(C(C)C)c1NC(=O)Nc1sc2ccc([N+](=O)[O-])cc2c1-c1ccc(Cl)cc1Cl", "note": "[Compound 100, N-[3-(2,4-Dichlorophenyl)-5-nitro-1-benzothiophen-2-yl]-N'-(2,6-diisopropylphenyl)urea]", "values": [{"measurement": "inhibition at 0.01 µM", "setting": "[1]", "result": 18.4, "unit": "%"}]}
{"smiles": "CCc1cccc(CC)c1NC(=O)Nc1sc2cc(OC)c(OC)cc2c1-c1ccccc1Cl", "note": "[Compound 102, N-[3-(2-Chlorophenyl)-5,6-dimethoxy-1-benzothiophen-2-yl]-N'-(2,6-diethylphenyl)urea]", "values": [{"measurement": "inhibition at 0.01 µM", "setting": "[1]", "result": 43.3, "unit": "%"}]}
{"smiles": "O=C(Nc1ccc(F)cc1F)Nc1sc2cc3c(cc2c1-c1ccc(Cl)cc1Cl)CCC3", "note": "[Compound 107, N-[3-(2,4-Dichlorophenyl)-6,7-dihydro-5H-cyclopenta[f][1]benzothiophen-2-yl]-N'-(2,4-difluorophenyl)urea]", "values": [{"measurement": "inhibition at 0.01 µM", "setting": "[1]", "result": 36.2, "unit": "%"}]}
{"smiles": "CCc1cccc(CC)c1NC(=O)Nc1sc2cc3c(cc2c1-c1ccccc1C)CCC3", "note": "[Compound 109, N-(2,6-Diethylphenyl)-N'-[3-(2-methylphenyl)-6,7-dihydro-5H-cyclopenta[f][1]benzothiophen-2-yl]urea]", "values": [{"measurement": "Reduction rate (%) of the total serum cholesterol concentration", "setting": "serum cholesterol", "result": 71.5, "unit": "%"}, {"measurement": "inhibition at 0.01 µM", "setting": "[1]", "result": 80.1, "unit": "%"}]}
{"smiles": "Cc1ccccc1-c1c(NC(=O)Nc2c(C)cccc2C(C)C)sc2cc3c(cc12)CCC3", "note": "[Compound 111, N-(2-Isopropyl-6-methylphenyl)-N'-[3-(2methylphenyl)-6,7-dihydro-5H-cyclopenta[f][1]benzothiophen-2-yl]urea]", "values": [{"measurement": "inhibition at 0.01 µM", "setting": "[1]", "result": 69.2, "unit": "%"}]}
{"smiles": "CCc1cccc(CC)c1NC(=O)Nc1sc2cc3c(cc2c1-c1ccccc1C(F)(F)F)CCC3", "note": "[Compound 113, N-(2,6-Diethylphenyl)-N'-[3-(2-trifluoromethylphenyl)-6,7-dihydro-5H-cyclopenta[f][1]-benzothiophen-2-yl]urea]", "values": [{"measurement": "inhibition at 0.01 µM", "setting": "[1]", "result": 43.5, "unit": "%"}]}
{"smiles": "Cc1ccccc1-c1c(NC(=O)Nc2ccc(F)cc2F)sc2cc3c(cc12)CCCC3", "note": "[Compound 119, N-(2,4-Difluorophenyl)-N'-[3-(2-methylphenyl)5,6,7,8-tetrahydronaphtho [2,3-b]thiophen-2-yl]urea]", "values": [{"measurement": "inhibition at 0.01 µM", "setting": "[1]", "result": 79.5, "unit": "%"}]}
{"smiles": "Cc1ccc(S(=O)(=O)n2c(NC(=O)Nc3ccc(F)cc3F)c(-c3ccccc3)c3ccccc32)cc1", "note": "[Compound 120, N-(2,4-Difluorophenyl)-N'-[3-phenyl-1-(p-toluenesulfonyl)-3-phenylindole-2-yl]urea]", "values": [{"measurement": "inhibition at 1 µM", "setting": "[1]", "result": 60.4, "unit": "%"}]}
{"smiles": "Cc1ccc(S(=O)(=O)n2c(NC(=O)Nc3c(C)cccc3C(C)C)c(-c3ccccc3Cl)c3cc(C)cc(C)c32)cc1", "note": "[Compound 121, N-[3-(2-chlorophenyl)-5,7-dimethyl-1-(p-toluenesulfonyl)indole-2-yl]-N'-(2-isopropyl-6-methylphenyl)urea]", "values": [{"measurement": "inhibition at 1 µM", "setting": "[1]", "result": 85.8, "unit": "%"}]}
{"smiles": "Cc1ccc(S(=O)(=O)n2c(NC(=O)Nc3ccc(F)cc3F)c(-c3ccccc3Cl)c3cc(C)cc(C)c32)cc1", "note": "[Compound 122, N-[3-(2-Chlorophenyl)-5,7-dimethyl-1-(p-toluenesulfonyl)indole-2-yl]-N'-(2,4-difluorophenyl)urea]", "values": [{"measurement": "inhibition at 1 µM", "setting": "[1]", "result": 75.4, "unit": "%"}]}
{"smiles": "Cc1cc(C)c2c(c1)c(-c1ccccc1Cl)c(NC(=O)Nc1ccc(F)cc1F)n2C", "note": "[Compound 124, N-[3-(2-Chlorophenyl)-5,7-dimethyl-1-methylindole-2-yl]-N'-(2,4-difluorophenyl)urea]", "values": [{"measurement": "inhibition at 1 µM", "setting": "[1]", "result": 81.7, "unit": "%"}]}
